Key:
[1] = Abstinence syndrome / physical dependency on withdrawal after repeated administration (body weight decrease); format: in vivo, male rats of Wistar strain; design: key to Abstinence syndrome: +++: severe decrease (about 5% decrease); ++: moderate decrease; +: mild decrease; -: no decrease; conditions: rats; for Abstinence syndrome: subcutaneous twice a day, body weight decrease on the day after drug withdrawal; for physical dependency: orally or subcutaneously everyday for over one month
Method: (§1) On account of this addiction liability, these analgesics are severely restricted in a therapeutic use.
Note: Groups of male rats of Wistar strain (body weight, 150 g), each group consisting of 20 male rats, were subcutaneously given the test compound twice a day for 4 consecutive weeks. On the next day after drug withdrawal, the body weight was measured. The symbols have the following meanings: +++, severe decrease (about 5% decrease); ++, moderate decrease; +, mild decrease; -, no decrease.

[2] = cited from earlier work
[3] = Subcutaneous writhing test (acetic acid); format: in vivo, mice; conditions: for ED50: Mus musculus, sc, mice, subcutaneous 20 minutes before acetic acid, Litchfeld-Wilcoxon's method; for analgesic activity: in words; for analgesic action compared with pentazocine: subcutaneous writhing test, versus pentazocine
Method: […]. Note: The test was based on the specific anatagonism of the test compound to the typical syndrome produced by intraperitoneal injection of 0.6% aqueous acetic acid. The syndrome was characterized by intermittent contractions of the abdomen, twisting and turning of the trunk and extension of the hind legs. A group of 5 mice was used for each dose level. The test compound was administered subcutaneously 20 minutes before the injection of acetic acid. […] The ED50 value was calculated according to the Litchfeld-Wilcoxon's method.

[4] = Addiction / drug dependency in (long term) animal tests; format: in vivo
From the text: Hitherto, many benzomorphan derivatives (e.g., phenazocine, pentazocine) have been developed as analgesic drugs but most of them have addiction and produce narcotic symptoms at their usual dosages.
as §1

## CC1C2Cc3ccc(O)cc3C1(C)CCN2C (stereo not drawn) [2'-Hydroxy-2,5,9-trimethyl-6,7-benzomorphan]
[1]; 20 mg/kg/day for 4 weeks
  Abstinence syndrome: ++
[2]; U.S. Pat. No. 3,138,603
  analgesic activity (known): potent analgesic activity
[2]; prior benzomorphan derivatives
  addiction liability (known): show an addition liability

## CC(C)SCCN1CCC2(C)c3cc(O)ccc3CC1C2C (stereo not drawn) [2'-Hydroxy-2-(β-isopropylthioethyl)-5,9-dimethyl-6,7-benzomorphan]
[3]
  ED50: 3.6 mg/kg
  analgesic activity: strong analgesic activity
  analgesic action compared with pentazocine: much more potent analgesic action than pentazocine

## CCC1C2Cc3ccc(O)cc3C1(CC)CCN2CCSC (stereo not drawn) [2'-Hydroxy-2-(β-methylthioethyl)-5,9-diethyl-6,7-benzomorphan]
[1]
  physical dependency: did not produce any physical dependency
[1]; 40 mg/kg/day for 4 weeks
  Abstinence syndrome: -
[4]
  addiction in long term animal tests: do not show addiction

## CSCCN1CCC2(C)c3cc(O)ccc3CC1C2C (stereo not drawn) [2'-Hydroxy-2-(β-methylthioethyl)-5,9-dimethyl-6,7-benzomorphan]
[1]
  physical dependency: did not produce any physical dependency
[1]; 40 mg/kg/day for 4 weeks
  Abstinence syndrome: -
[4]
  addiction in long term animal tests: do not show addiction
[3]
  ED50: 3.1 mg/kg
  analgesic activity: strong analgesic activity
  analgesic action compared with pentazocine: much more potent analgesic action than pentazocine

## CCC12CCN(CCSC)C(Cc3ccc(O)cc31)C2 (stereo not drawn) [2'-Hydroxy-2-(β-methylthioethyl)-5-ethyl-6,7-benzomorphan]
[1]
  physical dependency: did not produce any physical dependency
[1]; 20 mg/kg/day for 4 weeks
  Abstinence syndrome: -
[4]
  addiction in long term animal tests: do not show addiction
[3]
  ED50: 0.34 mg/kg
  analgesic activity: strong analgesic activity
  analgesic action compared with pentazocine: much more potent analgesic action than pentazocine
